Measurements published in patent US20250282753A1, “COMPOUNDS USEFUL FOR REDUCING URIC ACID” (ATOM BIOSCIENCE AMERICA CORPORATION, priority 2022, published 2025).
Structures can show the parent of a compound that is named as a salt.

Legend:
[1] = Pharmacokinetics of the compounds in SD rats (Example 36); format: in vivo; settings: SD rat plasma
Protocol: Preparation of compound stock solution: An appropriate amount of compound solid powder was be weighed and added in a certain amount of DMSO, and vortex ultrasound to obtain a 10 mg/mL stock solution.
(§1) Preparation of test compound for gavage: respectively taking an appropriate amount of the compound stock solution, adding a certain amount of Solutol HS15 solution, vortexing for 1 minute, then adding a certain amount of physiological saline, and fully mixing to obtain a 1 mg/mL solution.
as §1, with “for intravenous injection:” for “for gavage:”, “mixing until uniform, so as” for “mixing”, “a 0.5” for “a 1”
The experimental animals were fasted overnight before gavage administration, and were given food 4 hours after administration, with free access to water. Each test compound was divided into two groups, namely intravenous administration group and oral administration group.
Blood samples (150 μL/sample) were collected from the jugular vein of SD rats before administration and at 5 min (only intravenous administration group), 15 min, 30 min, 1 h, 2 h, 4 h, 8 h and 24 h after administration, respectively. The samples were placed in centrifuge tubes containing anticoagulant sodium heparin and centrifuged at 4° C., 2000 g for 5 minutes to separate plasma. The plasma samples were analyzed by LC/MS/MS to detect the concentration of each test compound.
Non-compartmental model-related parameters were calculated by WinNonlin® Professional software.

[2] = system: potassium oxonate-induced hyperuricemic rats; experiment: Serum uric acid in potassium oxonate-induced hyperuricemic rats, 3 days of gavage (Example 35); format: in vivo, SD rats; settings: for serum uric acid level compared with the model group at the same time point: 2 mg/kg for 3 days; for Uric acid 0 h / Uric acid 1 h / Uric acid 3 h / Uric acid 5 h: serum, 2 mg/kg gavage for 3 days, mean ± SD; for Uric acid 0 h: day 3, 0 h, before potassium oxonate injection, n=6; for Uric acid 1 h: day 3, 1 h after potassium oxonate injection; for Uric acid 3 h: day 3, 3 h after potassium oxonate injection; for Uric acid 5 h: day 3, 5 h after potassium oxonate injection
Protocol: Compound 13 was a light yellow powder, and compounds 38 and 41 are pseudo-white powders, which are triturated with 0.5% CMC-Na just prior to use to prepare a 0.4 mg/mL suspension for gavage.
36 male SD rats weighed approximately 220-240 g after one week of adaptation. […] The drugs in each group were prepared into a corresponding concentration suspension, and the administration volume was 0.5 mL/100 g.
After the rats in each group were purchased and adapted to feeding, they were fasted for 12 h, and, intraperitoneally, injected with⋅ potassium⋅ gxonate at a⋅dose of 300 mg/kg to establish the model. 0.5 h after modeling, each test drug group was gavaged once. The drug was administered continuously for 3 days. On day 3, blood samples was collected from the retro-orbital venous plexus before and 1, 3, and 5 h after potassium oxonate injection. The samples were centrifuged at 3500 rpm for 10 min, and 30 μL of serum was collected to determine the uric acid level at each time point.
The measurement data of each test were expressed as (mean)±standard deviation). The comparison between groups used ANOVA-Dunnett T test to examine the significance. P<0.05 was used as the significance index, and P<0.01 was used as the extremely significant index.

[3] = system: potassium oxonate-induced hyperuricemic rats; experiment: Serum uric acid in potassium oxonate-induced hyperuricemic rats, single gavage (Example 34); format: in vivo, SD rats; settings: for serum uric acid level compared with the model group at the same time point: P<0.05; for Uric acid 0 h / Uric acid 1 h / Uric acid 3 h / Uric acid 5 h: serum, mean ± SD; for Uric acid 0 h: before potassium oxonate injection; for Uric acid 1 h: 1 h after potassium oxonate injection; for Uric acid 3 h: 3 h after potassium oxonate injection; for Uric acid 5 h: 5 h after potassium oxonate injection
Protocol: 36 male SD rats weighed approximately 200-230 g after one week of adaptation. […] The drugs in each group were prepared into a corresponding concentration suspension, and the administration volume was 0.5 mL/100 g.
After the rats in each group were purchased and adapted to feeding, they were fasted for 12 h, and intraperitoneally injected with potassium oxonate at a dose of 300 mg/kg to establish the model. After 0.5 h of model establishment, each test drug group was gavaged once. Blood was collected from the retro-orbital venous plexus before and 1, 3, and 5 h after potassium oxonate injection. The samples were centrifuged at 3500 rpm for 10 min. 30 μL of serum was collected to determine the uric acid level at each time point.
The measurement data of each test were expressed as (mean)+standard deviation). The comparison between groups used ANOVA-Dunnett T test to examine the significance. P<0.05 was used as the significance index, and P<0.01 was used as the extremely significant index.

[4] = Intravenous injection administration - 1 mg/kg
[5] = po, Gavage administration - 10 mg/kg
[6] = 1, 3, and 5 h after modeling, P<0.01 or P<0.05

Row | SMILES | AUC(0-inf) [1, 4] [ng·h/mL] | Cmax [1, 4] [ng/mL] | MRT inf [1, 4] [h] | Tmax [1, 4] [h] | half-life [1, 4] [h] | AUC(0-inf) [1, 5] [ng·h/mL] | Cmax [1, 5] [ng/mL] | MRT inf [1, 5] [h] | Tmax [1, 5] [h] | half-life [1, 5] [h] | other results
1 | CCOC(=O)c1cnn(-c2ccc3c(c2)c(C#N)nn3C(C)C)c1 [Compound 2, ethyl 1-(3-cyano-1-isopropyl-1H-indazol-5-yl)-1H-pyrazole-4-carboxylate] | 1400 | 843 | 5.05 | 0.139 | 6.12 | 30100 | 4780 | 4.78 | 0.667 | 2.91 | –
2 | COC(=O)c1cnn(-c2ccc3c(c2)c(C#N)nn3C(C)C)c1 [Compound 5, methyl 1-(3-cyano-1-isopropyl-1H-indazol-5-yl)-1H-pyrazole-4-carboxylate] | 1490 | 554 | 8.38 | 0.25 | 7.45 | 25100 | 6750 | 3.17 | 1.17 | 3.78 | –
3 | CC(C)OC(=O)c1cnn(-c2ccc3c(c2)c(C#N)nn3C(C)C)c1 [Compound 7, isopropyl 1-(3-cyano-1-isopropyl-1H-indazol-5-yl)-1H-pyrazole-4-carboxylate] | 674 | 338 | 7.65 | 0.194 | 8.6 | 12900 | 2920 | 3.84 | 0.5 | 3.27 | –
4 | CC(C)=CCC/C(C)=C/CC/C(C)=C/COC(=O)c1cnn(-c2ccc3c(c2)c(C#N)nn3C(C)C)c1 [Compound 13, (3,7,11-trimethyldodecyl-2,6,10-trien-1-yl) 1-(3-cyano-1-isopropyl-1H-indazol-5-yl)-1H-pyrazole-4-carboxylate] | – | – | – | – | – | – | – | – | – | – | serum uric acid level compared with the model group at the same time point [2, 6]: significantly reduce; Uric acid 0 h [2]: 40.7 ± 4.4 µmol/L; Uric acid 1 h [2]: 42.1 ± 10.6 µmol/L; Uric acid 3 h [2]: 66.0 ± 10.7 µmol/L; Uric acid 5 h [2]: 75.0 ± 7.1 µmol/L
5 | Cc1oc(=O)oc1COC(=O)c1ccnc(-c2ccc3c(c2)c(C#N)nn3C(C)C)c1 [Compound 22, (5-methyl-2-oxo-1,3-dioxol-4-yl)methyl 2-(3-cyano-1-isopropyl-1H-indazol-5-yl) isonicotinate] | – | – | – | – | – | – | – | – | – | – | serum uric acid level compared with the model group at the same time point ([3]; 1.45 mg/kg group, 1 h after modeling): significantly reduce; serum uric acid level compared with the model group at the same time point ([3]; 2.9 mg/kg group, 1 and 5 h after modeling): significantly reduce; Uric acid 0 h ([3]; 1.45 mg/kg gavage once): 64.0 ± 13.1 µmol/L; Uric acid 1 h ([3]; 1.45 mg/kg gavage once): 88.1 ± 17.8 µmol/L; Uric acid 3 h ([3]; 1.45 mg/kg gavage once): 86.5 ± 11.5 µmol/L; Uric acid 5 h ([3]; 1.45 mg/kg gavage once): 78.1 ± 11.1 µmol/L; Uric acid 0 h ([3]; 2.90 mg/kg gavage once): 66.4 ± 7.0 µmol/L; Uric acid 1 h ([3]; 2.90 mg/kg gavage once): 88.3 ± 11.9 µmol/L; Uric acid 3 h ([3]; 2.90 mg/kg gavage once): 77.1 ± 13.2 µmol/L; Uric acid 5 h ([3]; 2.90 mg/kg gavage once): 70.9 ± 6.3 µmol/L
6 | CC(=O)OCCOC(=O)c1ccnc(-c2ccc3c(c2)c(C#N)nn3C(C)C)c1 [Compound 28, (2-acetoxy)ethyl 2-(3-cyano-1-isopropyl-1H-indazol-5-yl) isonicotinate] | 947 | 712 | 4.31 | 0.083 | 8.21 | 15800 | 3150 | 3.55 | 2.17 | 2.93 | –
7 | CC(C)n1nc(C#N)c2cc(-n3cc(C(=O)OCCCCO[N+](=O)[O-])cn3)ccc21 [Compound 38, [4-(nitrooxy)] butyl 1-(3-cyano-1-isopropyl-1H-indazol-5-yl)-1H-pyrazole-4-carboxylate] | – | – | – | – | – | – | – | – | – | – | serum uric acid level compared with the model group at the same time point [2, 6]: significantly reduce; Uric acid 0 h [2]: 51.7 ± 5.9 µmol/L; Uric acid 1 h [2]: 67.5 ± 19.3 µmol/L; Uric acid 3 h [2]: 69.0 ± 24.7 µmol/L; Uric acid 5 h [2]: 51.7 ± 6.7 µmol/L
8 | CC(C)n1nc(C#N)c2cc(-n3cc(C(=O)Oc4cccc(CO[N+](=O)[O-])c4)cn3)ccc21 [Compound 41, [3-(nitrooxy)methyl]phenyl 1-(3-cyano-1-isopropyl-1H-indazol-5-yl)-1H-pyrazole-4-carboxylate] | – | – | – | – | – | – | – | – | – | – | serum uric acid level compared with the model group at the same time point ([2]; 3 and 5 h after modeling, P<0.01): significantly reduce; Uric acid 0 h [2]: 50.6 ± 7.3 µmol/L; Uric acid 1 h [2]: 74.1 ± 16.5 µmol/L; Uric acid 3 h [2]: 72.2 ± 20.2 µmol/L; Uric acid 5 h [2]: 55.4 ± 14.9 µmol/L

Continued, in another order:

Row | AUC(0-inf) [1, 4] [ng·h/mL] | Cmax [1, 4] [ng/mL] | MRT inf [1, 4] [h] | Tmax [1, 4] [h] | half-life [1, 4] [h] | AUC(0-inf) [1, 5] [ng·h/mL] | Cmax [1, 5] [ng/mL] | MRT inf [1, 5] [h] | Tmax [1, 5] [h] | half-life [1, 5] [h] | SMILES | other results
9 | 776 | 518 | 6.46 | 0.25 | 8.78 | 25300 | 6170 | 2.86 | 0.667 | 2.33 | COC(=O)c1ccnc(-c2ccc3c(c2)c(C#N)nn3C(C)C)c1 [Compound 19, methyl 2-(3-cyano-1-isopropyl-1H-indazol-5-yl) isonicotinate] | –
10 | 1290 | 1970 | 2.47 | 0.083 | 7.11 | 31000 | 5520 | 3.57 | 0.917 | 2.52 | CCOC(=O)OC(C)OC(=O)c1ccnc(-c2ccc3c(c2)c(C#N)nn3C(C)C)c1 (stereo not shown) [Compound 26, ethyl {1-[(ethoxycarbonyl)oxy]} 2-(3-cyano-1-isopropyl-1H-indazol-5-yl) isonicotinate] | –
11 | 1010 | 904 | 4.75 | 0.083 | 9.03 | 20900 | 4310 | 3.39 | 2 | 2.75 | COCCOC(=O)c1ccnc(-c2ccc3c(c2)c(C#N)nn3C(C)C)c1 [Compound 31, (2-methoxy)ethyl 2-(3-cyano-1-isopropyl-1H-indazol-5-yl) isonicotinate hydrobromide] | –
12 | 886 | 714 | 7.16 | 0.083 | 9.92 | 18300 | 3900 | 3.9 | 0.5 | 3.03 | CC(C)n1nc(C#N)c2cc(-c3cc(C(=O)OCCCCO[N+](=O)[O-])ccn3)ccc21 [Compound 39, [4-(nitrooxy)] butyl 2-(3-cyano-1-isopropyl-1H-indazol-5-yl) isonicotinate] | –
13 | 767 | 2.82 | 3.37 | 0.083 | 6.44 | 8640 | 1510 | 4.12 | 1.58 | 2.91 | CC(C)n1nc(C#N)c2cc(-c3cc(C(=O)Oc4cccc(CO[N+](=O)[O-])c4)ccn3)ccc21 [Compound 42, [3-(nitrooxy)methyl]phenyl 2-(3-cyano-1-isopropyl-1H-indazol-5-yl) isonicotinate] | –
